Data on 27 molecules can be found in patent publication US20240043427A1 (Gilead Sciences, Inc., priority 2020, published 2024).

Bounds are passed on as bounds.

Experiment [1] has as its target T1, CD73 (Homo sapiens (Human), UniProt P21589). Briefly: MDA-MB-231 Cell Based CD73 Activity Assay (DMEM). As to conditions: MDA-MB-231-GFP cells, DMEM medium with 10% human plasma, 200 uM AMP.
Experiment [2] concerns the target T1, CD73. It counts as biochemical. As to conditions: 1 mM NaH2PO4 in enzyme buffer, CD73 0.3 nM, AMP 15 uM.

T1 sequence (P21589 27-574): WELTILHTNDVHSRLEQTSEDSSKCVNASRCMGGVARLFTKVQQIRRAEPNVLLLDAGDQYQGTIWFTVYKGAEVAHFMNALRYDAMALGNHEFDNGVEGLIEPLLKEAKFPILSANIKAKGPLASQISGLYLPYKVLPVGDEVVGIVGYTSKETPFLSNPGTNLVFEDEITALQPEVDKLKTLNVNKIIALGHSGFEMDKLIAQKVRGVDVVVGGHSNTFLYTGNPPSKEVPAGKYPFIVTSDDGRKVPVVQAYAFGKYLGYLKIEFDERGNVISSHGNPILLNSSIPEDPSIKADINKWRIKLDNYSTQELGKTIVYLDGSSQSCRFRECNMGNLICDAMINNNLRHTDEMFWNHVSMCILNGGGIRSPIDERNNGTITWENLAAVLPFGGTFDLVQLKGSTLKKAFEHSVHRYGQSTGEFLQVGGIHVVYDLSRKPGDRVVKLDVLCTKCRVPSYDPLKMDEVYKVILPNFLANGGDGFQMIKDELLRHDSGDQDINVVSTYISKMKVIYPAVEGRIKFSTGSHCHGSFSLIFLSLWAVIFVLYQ

By EC50 is commonly meant the concentration at which the effect is half-maximal. A low value points to greater potency. As a reminder, the IC50 is the concentration that inhibits the measured activity by half. High values mean weaker potency in that assay, low ones greater potency in that assay. Turning to `O=c1[nH]cc(-c2cc(N3CC[C@@H](OC(F)F)C3)c3nccn3n2)c(=O)[nH]1` [Example 347, (R)-5-(8-(3-(difluoromethoxy)pyrrolidin-1-yl)imidazo[1,2-b]pyridazin-6-yl)pyrimidine-2,4(1H,3H)-dione], the EC50 on CD73 [1] was 11.9 nM. The molecule also gave an IC50 against CD73 [2] of 4.39 nM.

Turning to `COC(=O)c1cccc(C2CN(c3cc(-c4c[nH]c(=O)[nH]c4=O)nn4ccnc34)C2)c1` [Example 263, Methyl 3-(1-(6-(2,4-dioxo-1,2,3,4-tetrahydropyrimidin-5-yl)imidazo[1,2-b]pyridazin-8-yl)azetidin-3-yl)benzoate], the EC50 at CD73 [1] was 31.4 nM. It took 10.7 nM to reach half-maximal inhibition on CD73 [2] (IC50).

On CD73 [1], `CC1(C)CN(c2cc(-c3c[nH]c(=O)[nH]c3=O)nn3ncnc23)CC1(F)F` [Example 426, 5-(8-(3,3-difluoro-4,4-dimethylpyrrolidin-1-yl)-[1,2,4]triazolo[1,5-b]pyridazin-6-yl)pyrimidine-2,4(1H,3H)-dione] showed an EC50 of 4.5 nM. This molecule gave a 50% inhibitory concentration (IC50) at CD73 [2] of 0.23 nM.

As to `O=c1[nH]cc(-c2cc(N3CC(Oc4ccc(C(F)F)cn4)C(F)(F)C3)c3nccn3n2)c(=O)[nH]1` (stereo not drawn) [Example 232, 5-(8-(4-((5-(difluoromethyl)pyridin-2-yl)oxy)-3,3-difluoropyrrolidin-1-yl)imidazo[1,2-b]pyridazin-6-yl)pyrimidine-2,4(1H,3H)-dione], it took 6.18 nM to reach a half-maximal effect on CD73 [1] (EC50). This molecule also yielded an IC50 against CD73 [2] of 2.15 nM.

In turn, `O=c1[nH]cc(-c2cc([C@@H]3[C@@H](c4ccc(F)c(F)c4)C3(F)F)c3nccn3n2)c(=O)[nH]1` (racemic) [Example 552, 5-(8-((1S,3S)-3-(3,4-difluorophenyl)-2,2-difluorocyclopropyl)imidazo[1,2-b]pyridazin-6-yl)pyrimidine-2,4(1H,3H)-dione] came in with an EC50 on CD73 [1] of 15.2 nM. This molecule returned an IC50 at CD73 [2] of 2.76 nM.

Take `O=c1[nH]cc(-c2cc(N3CC(F)(CO)C3)c3nccn3n2)c(=O)[nH]1` [Example 423, 5-(8-(3-fluoro-3-(hydroxymethyl)azetidin-1-yl)imidazo[1,2-b]pyridazin-6-yl)pyrimidine-2,4(1H,3H)-dione]: a half-maximal response on CD73 [1] (EC50) required 76.4 nM. The same molecule registered an IC50 at CD73 [2] of 39.2 nM.

Consider `O=c1[nH]cc(-c2cc([C@H]3C[C@@H]3c3cnc4c(F)nn(CC(F)(F)F)c4c3)c3ncc(Cl)n3n2)c(=O)[nH]1` [Example 719, 5-[3-chloro-8-[(1S,2S)-2-[3-fluoro-1-(2,2,2-trifluoroethyl)pyrazolo[4,3-b]pyridin-6-yl]cyclopropyl]imidazo[1,2-b]pyridazin-6-yl]-1H-pyrimidine-2,4-dione], for which the midpoint of the response at CD73 [1], the EC50, lay at 0.46 nM. For the same molecule, the IC50 against CD73 [2] is 0.51 nM.

In the case of `O=C(c1cn2nc(-c3c[nH]c(=O)[nH]c3=O)cc([C@H]3C[C@@H]3c3ccc(F)cc3)c2n1)N1CCC(F)(F)C1` (racemic) [Example 199, 5-[2-(3,3-difluoropyrrolidine-1-carbonyl)-8-[(1S,2S)-2-(4-fluorophenyl)cyclopropyl]imidazo[1,2-b]pyridazin-6-yl]-1H-pyrimidine-2,4-dione], the EC50 on CD73 [1] was 755 nM. Moreover, the IC50 against CD73 [2] is more than 250 nM.

In turn, `CC(C)C(=O)N1CCC12CCN(c1cc(-c3c[nH]c(=O)[nH]c3=O)nn3ccnc13)C2` (stereo not drawn) [Example 657, 5-(8-(1-isobutyryl-1,6-diazaspiro[3.4]octan-6-yl)imidazo[1,2-b]pyridazin-6-yl)pyrimidine-2,4(1H,3H)-dione] gave an EC50 at CD73 [1] of 227 nM. Moreover, inhibition on CD73 [2] was half-maximal at 81.3 nM (IC50).

In the case of `O=c1[nH]cc(-c2cc([C@@H]3C[C@H]3c3ccc4cnn(CC(F)F)c4c3)c3nccn3n2)c(=O)[nH]1` [Example 124, 5-(8-((1R,2R)-2-(1-(2,2-difluoroethyl)-1H-indazol-6-yl)cyclopropyl)imidazo[1,2-b]pyridazin-6-yl)pyrimidine-2,4(1H,3H)-dione], the EC50 at CD73 [1] is 0.62 nM. Further, 2.6 nM corresponded to half-maximal inhibition at CD73 [2] (IC50).

At CD73 [1], `N#Cc1ccc([C@H]2C[C@@H]2c2cc(-c3c[nH]c(=O)[nH]c3=O)nn3ccnc23)cc1Cl` [Example 566, 2-chloro-4-((1S,2S)-2-(6-(2,4-dioxo-1,2,3,4-tetrahydropyrimidin-5-yl)imidazo[1,2-b]pyridazin-8-yl)cyclopropyl)benzonitrile] returned a concentration for a half-maximal effect (EC50) of 4.46 nM. The same molecule yielded an IC50 on CD73 [2] of 0.78 nM.

As for `N#Cc1ccc(O[C@H]2CN(c3cc(-c4c[nH]c(=O)[nH]c4=O)nn4ccnc34)CC2(F)F)nc1` [Example 339, (S)-6-((1-(6-(2,4-dioxo-1,2,3,4-tetrahydropyrimidin-5-yl)imidazo[1,2-b]pyridazin-8-yl)-4,4-difluoropyrrolidin-3-yl)oxy)nicotinonitrile], the EC50 on CD73 [1] came to 2.6 nM. Moreover, the IC50 against CD73 [2] was 0.91 nM.

The molecule `O=c1[nH]cc(-c2cc(N3C[C@@H](Oc4cc(C(F)(F)F)ccn4)C(F)(F)C3)c3nccn3n2)c(=O)[nH]1` [Example 331, (R)-5-(8-(3,3-difluoro-4-((4-(trifluoromethyl)pyridin-2-yl)oxy)pyrrolidin-1-yl)imidazo[1,2-b]pyridazin-6-yl)pyrimidine-2,4(1H,3H)-dione] returned an EC50 at CD73 [1] of 11.1 nM. Also, the IC50 against CD73 [2] was 16.2 nM.

Take `O=c1[nH]cc(-c2cc(OCCc3ccccc3)c3nccn3n2)c(=O)[nH]1` [Example 673, 5-(8-phenethoxyimidazo[1,2-b]pyridazin-6-yl)pyrimidine-2,4(1H,3H)-dione]: the EC50 at CD73 [1] was 31.6 nM. In addition, the IC50 on CD73 [2] came to 5.46 nM.

Consider `O=c1[nH]cc(-c2cc([C@H]3C[C@@H]3c3ccc4nc(C(F)F)sc4c3)c3nccn3n2)c(=O)[nH]1` (racemic) [Example 589, 5-(8-((1S,2S)-2-(2-(difluoromethyl)benzo[d]thiazol-6-yl)cyclopropyl)imidazo[1,2-b]pyridazin-6-yl)pyrimidine-2,4(1H,3H)-dione], for which the EC50 at CD73 [1] is 2.56 nM. In addition, on CD73 [2], half-maximal inhibition (IC50) was put at 0.63 nM.

Molecule `COCC1(C)CCN(c2cc(-c3c[nH]c(=O)[nH]c3=O)nn3ccnc23)C1` (stereo not drawn) [Example 572, 5-(8-(3-(methoxymethyl)-3-methylpyrrolidin-1-yl)imidazo[1,2-b]pyridazin-6-yl)pyrimidine-2,4(1H,3H)-dione] yielded an EC50 on CD73 [1] of 93.9 nM. In addition, at CD73 [2], the midpoint of inhibition, the IC50, lay at 25.3 nM.

As for `O=c1[nH]cc(-c2cc(N3CC(F)(c4ccccc4)C3)c3nccn3n2)c(=O)[nH]1` [Example 259, 5-(8-(3-fluoro-3-phenylazetidin-1-yl)imidazo[1,2-b]pyridazin-6-yl)pyrimidine-2,4(1H,3H)-dione], it took 80.7 nM to reach a half-maximal effect at CD73 [1] (EC50). Inhibition against CD73 [2] was half-maximal at 14.7 nM (IC50).

The molecule `O=c1[nH]cc(-c2cc([C@H]3C[C@@H]3c3ccc(Cl)cc3)c3nccn3n2)c(=O)[nH]1` [Example 633, 5-(8-((1S,2S)-2-(4-chlorophenyl)cyclopropyl)imidazo[1,2-b]pyridazin-6-yl)pyrimidine-2,4(1H,3H)-dione] displayed an EC50 at CD73 [1] of 7.08 nM. Also, on CD73 [2], the IC50 is 1.55 nM.

`O=c1[nH]cc(-c2cc([C@H]3C[C@@H]3c3ccc(OC(F)F)cc3)c3nccn3n2)c(=O)[nH]1` [Example 561, 5-(8-((1S,2S)-2-(4-(difluoromethoxy)phenyl)cyclopropyl)imidazo[1,2-b]pyridazin-6-yl)pyrimidine-2,4(1H,3H)-dione] showed an EC50 at CD73 [1] of 3.06 nM. The molecule further registered an IC50 at CD73 [2] of 0.71 nM.

On CD73 [1], `O=c1[nH]cc(-c2cc([C@H]3C[C@@H]3c3cc(C(F)(F)F)c4cccnc4c3)c3nccn3n2)c(=O)[nH]1` [Example 394, 5-(8-((1S,2S)-2-(5-(trifluoromethyl)quinolin-7-yl)cyclopropyl)imidazo[1,2-b]pyridazin-6-yl)pyrimidine-2,4(1H,3H)-dione] registered an EC50 of more than 250 nM. The molecule further returned an IC50 on CD73 [2] of 5.94 nM.

`O=c1[nH]cc(-c2cc(N3CC(F)(C(F)(F)F)C3)c3ncnn3n2)c(=O)[nH]1` [Example 433, 5-(8-(3-fluoro-3-(trifluoromethyl)azetidin-1-yl)-[1,2,4]triazolo[1,5-b]pyridazin-6-yl)pyrimidine-2,4(1H,3H)-dione] yielded an EC50 on CD73 [1] of 44.6 nM. The same molecule registered an IC50 on CD73 [2] of 9.71 nM.

`O=c1[nH]cc(-c2cc(N3CC[C@H](CC(F)F)C3)c3nccn3n2)c(=O)[nH]1` [Example 454, (R)-5-(8-(3-(2,2-difluoroethyl)pyrrolidin-1-yl)imidazo[1,2-b]pyridazin-6-yl)pyrimidine-2,4(1H,3H)-dione] came in with an EC50 at CD73 [1] of 50.6 nM. This molecule also displayed an IC50 against CD73 [2] of 28.7 nM.

As to `O=c1[nH]cc(-c2cc(N3CCC(Oc4ccccc4)C3)c3nccn3n2)c(=O)[nH]1` (stereo not drawn) [Example 242, 5-(8-(3-phenoxypyrrolidin-1-yl)imidazo[1,2-b]pyridazin-6-yl)pyrimidine-2,4(1H,3H)-dione], the response on CD73 [1] was half-maximal at 2.43 nM (EC50). Also, the IC50 on CD73 [2] stood at 0.22 nM.

As to `COCCNc1cc(-c2c[nH]c(=O)[nH]c2=O)nn2ccnc12` [Example 669, 5-(8-((2-methoxyethyl)amino)imidazo[1,2-b]pyridazin-6-yl)pyrimidine-2,4(1H,3H)-dione], the EC50 on CD73 [1] is 690 nM. The molecule also showed an IC50 on CD73 [2] of more than 250 nM.

Consider `O=c1[nH]cc(-c2cc([C@H]3C[C@@H]3c3ccc(OC(F)F)cc3)c3nccn3n2)c(=O)[nH]1` (racemic) [Example 556, 5-(8-((1S,2S)-2-(4-(difluoromethoxy)phenyl)cyclopropyl)imidazo[1,2-b]pyridazin-6-yl)pyrimidine-2,4(1H,3H)-dione], for which the EC50 on CD73 [1] was found to be 14 nM. The same molecule yielded an IC50 against CD73 [2] of 3.41 nM.

Molecule `O=c1[nH]cc(-c2cc([C@@H]3C[C@H]3c3cnc(C(F)(F)F)nc3)c3ncc(F)n3n2)c(=O)[nH]1` [Example 273, 5-(3-fluoro-8-((1R,2R)-2-(2-(trifluoromethyl)pyrimidin-5-yl)cyclopropyl)imidazo[1,2-b]pyridazin-6-yl)pyrimidine-2,4(1H,3H)-dione] had an EC50 on CD73 [1] of 58.1 nM. Moreover, half-maximal inhibition against CD73 [2] (IC50) was put at 9.39 nM.

Turning to `O=c1[nH]cc(-c2cc(N3CC(C4CCC4)C3)c3nccn3n2)c(=O)[nH]1` [Example 401, 5-(8-(3-cyclobutylazetidin-1-yl)imidazo[1,2-b]pyridazin-6-yl)pyrimidine-2,4(1H,3H)-dione], on CD73 [1], the EC50 was 53 nM. On CD73 [2], this molecule registered an IC50 of 12.6 nM.
